Measured values taken from US20230131376A1, “ADJUVANT-ANTIBIOTIC COMBINATION AGAINST GRAM-NEGATIVE BACTERIA” (University of Notre Dame du Lac, priority 2020, published 2023).
Entries after “also recorded” stand apart in the source; their conditions may differ.

How the values were obtained:
K. pneumoniae B9 = experiment: Colistin potentiation, chromosomally colistin resistant K. pneumoniae B9; assay type: cell-based
Description: (§1) Broth microdilution method for antibiotic potentiation.

K. pneumoniae C3 = experiment: Colistin potentiation, chromosomally colistin resistant K. pneumoniae C3; assay type: cell-based
Description: as §1

A. baumannii 3941 = experiment: Colistin potentiation, chromosomally colistin resistant A. baumannii 3941; assay type: cell-based
Description: as §1

A. baumannii 4106 [1] = experiment: Colistin potentiation, chromosomally colistin resistant A. baumannii 4106; assay type: cell-based
Description: as §1

4T1 cells = experiment: MTT cell viability assay; assay type: cell-based, mouse; details: for CT50, Compound + colistin / CT50, Compound alone: 4T1 cells, 18 h, concentration giving 50% cell viability; for CT50, Compound + colistin: with 1 μg/mL colistin; for CT50, Compound alone: without colistin
Protocol: MTT Cell Viability Assay. 4T1 cells (ATCC Manassas, Va.) were plated at a density of 1×10^4 cells/well in 96-well plates. (Roswell Park Memorial Institute Media 1640, Gibco, Gaithersburg, Md.) supplemented with 10% Fetal Bovine Serum (Gibco), 2 mM GlutaMAX (Gibco) and 50 μM 2-mercaptoethanol (Sigma Aldrich St. Louis, Mo.) and incubated at 37° C. under a 5% CO2 atmosphere in the dark for 18 h. Cell cultures were treated with serial dilutions of compounds in the presence or absence of 1 μg/mL colistin (3 replicates per condition) and incubated for an additional 18 hours. The following control conditions were used: media only (blank), 1% Triton X100 (0% cell viability), 0.5% DMSO (100% cell viability). Each condition was then treated with 10% volume of a 5 mg/mL solution of 3-(4,5-dimethylthiazol-2-yl)-2,5-diphenyltetrazolium bromide (MTT) (Sigma Aldrich) in sterile filtered 1× phosphate buffered saline (PBS) and incubated for 2 h. at 37° C. in 5% CO2, after which the media was aspirated and the resulting formazan crystals were resuspended in 100 μL acidified (4 mM HCl) isopropanol. The 96-well plate was then read at 540 nm on a FLUOstar Optima (BMG Labtech Cary, N.C.) microplate reader. Cell viability was calculated as a percentage using the two previously mentioned controls.

[2] = tested on: chromosomally colistin resistant K. pneumoniae and A. baumannii strains; experiment: Colistin potentiation stated for the four chromosomally colistin resistant strains together; assay type: cell-based
Description: as §1

[3] = tested on: A. baumannii 17978 +mcr-1; experiment: Colistin potentiation with detergent (Tween 80); assay type: cell-based; details: adjuvant at 30 μM; 0.01% Tween 80
Description: Broth microdilution method for antibiotic potentiation with detergent.

red blood cells = experiment: Hemolysis assay; assay type: cell-based, sheep
Protocol: Hemolysis assay. Hemolysis assays were performed on mechanically defibrinated sheep blood (Hemostat Labs: DSB30). Defibrinated blood (1.5 mL) was placed into a microcentrifuge tube and centrifuged for 10 min at 10,000 rpm. The supernatant was then removed, and the cells were resuspended in 1 mL of phosphate-buffered saline (PBS). The suspension was centrifuged, the supernatant was removed, and cells were resuspended two additional times. The final cell suspension was then diluted 10-fold. Test compound solutions were made in PBS in small culture tubes and then added to aliquots of the 10-fold suspension dilution of blood. PBS was used as a negative control and a zero hemolysis marker. Triton X (a 1% sample) was used as a positive control serving as the 100% lysis marker. Samples were then placed in an incubator at 37° C. while being shaken at 200 rpm for one hour. After one hour, the samples were transferred to microcentrifuge tubes and centrifuged for 10 min at 10,000 rpm. The resulting supernatant was diluted by a factor of 40 in distilled water. The absorbance of the supernatant was then measured with a UV spectrometer at a 540 nm wavelength.

[4] = tested on: A. baumannii 4106 infection in G. mellonella larvae; experiment: Galleria mellonella model of A. baumannii infection; assay type: in vivo; details: 6×10^5 CFU A. baumannii 4106, day 4
Protocol: Galleria mellonella Assay. G. mellonella larvae (Speedy Worm, Alexandria, Minn.) were used within 10 days of shipment from the vendor. After reception of worms, larvae were kept in the dark at room temperature for at least 24 h. before infection. Larvae weighing between 200 to 300 mg were used in the survival assay. Using a 10 μL glass syringe (Hamilton, Reno, Nev.) fitted with a 30 G needle (Exel International, St. Petersburg, Fla.), a 5 μL solution of the desired compound(s) and concentration(s) were injected into the last left proleg. Colistin was dosed at 50 mg/kg dissolved in DI water, 2-AIs at 50 mg/kg dissolved in DMSO, tigecycline at 100 mg/kg dissolved in DMSO, and DMSO was injected for a negative control. For bacterial injections, 1 mL from an overnight culture of A. baumannii 4106 in Miller LB broth (Fisher Scientific U.S.) was subcultured into 9 mL Miller LB broth and incubated for an additional 3 h before use. The 10 mL solution was centrifuged and washed three times with phosphate buffer solution (PBS, Fisher Scientific U.S.) before diluting to 6×10^5 CFUs in PBS. Then, 2.5 h. after the first injection, a second 5 μL injection containing 6×10^5 CFUs of A. baumannii 4106 was injected into the second to last left proleg. Injected worms were left at room temperature in the dark while being assessed at 24 h intervals over 4 days. […] Experiment was repeated 3 times using 10 larvae per experimental group. No ethics approval was needed for G. mellonella.

[5] = tested on: mcr-1 plasmid containing E. coli, K. pneumoniae, and A. baumannii; experiment: Colistin potentiation stated for all three mcr-1 strains together
[6] = tested on: several MDR Gram-negative bacterial strains; details: cited from earlier work
A. baumannii 4106 [7] = experiment: In vitro MIC of tigecycline; assay type: cell-based; details: Acinetobacter baumannii
Protocol: Broth microdilution method for MIC determination. […] Aliquots (1 mL) were placed in culture tubes and compound was added from 10 mM stock samples in DMSO, such that compound concentration equaled highest concentration tested (200 μM). Samples were then aliquoted (200 μL) into the first wells of a 96-well plate, with all remaining wells being filled with 100 μL of initial bacterial subculture. Row one wells were mixed five times, before 100 μL was transferred to row two. […] This process was repeated until the final row had been mixed; this served to serially dilute the compound.

[8] = adjuvant at 5 μM, K. pneumoniae B9
[9] = adjuvant at 7.5 μM, K. pneumoniae B9
[10] = adjuvant at 10 μM, K. pneumoniae B9
[11] = adjuvant at 15 μM, K. pneumoniae B9
[12] = adjuvant at 15 μM, susceptibility breakpoint 2 μg/mL

## O=C(NCCc1c[nH]c2ccc(Br)cc12)Nc1ccc(Cl)c(Cl)c1 [Compound 9d, 1-(2-(5-bromo-1H-indol-3-yl)ethyl)-3-(3,4-dichlorophenyl)urea]
K. pneumoniae B9; [8]
  colistin MIC with adjuvant: 8 µg/mL
K. pneumoniae B9; [9]
  colistin MIC with adjuvant: 2 µg/mL
K. pneumoniae B9; [10]
  colistin MIC with adjuvant: 1 µg/mL
K. pneumoniae B9; [11]
  colistin MIC with adjuvant: 0.5 µg/mL
K. pneumoniae C3; adjuvant at 10 μM
  colistin MIC with adjuvant: 4 µg/mL
K. pneumoniae C3; adjuvant at 15 μM
  colistin MIC with adjuvant: 2 µg/mL
K. pneumoniae C3; adjuvant at 20 μM
  colistin MIC with adjuvant: 1 µg/mL
A. baumannii 3941; adjuvant at 10 μM
  colistin MIC with adjuvant: 8 µg/mL
A. baumannii 3941; adjuvant at 15 μM
  colistin MIC with adjuvant: 4 µg/mL
A. baumannii 3941; adjuvant at 20 μM
  colistin MIC with adjuvant: 2 µg/mL
A. baumannii 4106 [1]; adjuvant at 10 μM
  colistin MIC with adjuvant: 4 µg/mL
A. baumannii 4106 [1]; adjuvant at 15 μM
  colistin MIC with adjuvant: 2 µg/mL
A. baumannii 4106 [1]; adjuvant at 20 μM
  colistin MIC with adjuvant: 2 µg/mL
4T1 cells
  CT50, Compound + colistin: 84.6 µM
  CT50, Compound alone: 125.5 µM

## O=C(NCCc1c[nH]c2ccc(Br)cc12)Nc1cc(Cl)c(Br)c(Cl)c1 [Compound 9e, 1-(2-(5-bromo-1H-indol-3-yl)ethyl)-3-(4-bromo-3,5-dichlorophenyl)urea]
K. pneumoniae B9; [8]
  colistin MIC with adjuvant: 0.5 µg/mL
K. pneumoniae B9; adjuvant at 5 μM, a chromosomally resistant K. pneumoniae strain (MIC 512 to 0.5 μg/mL)
  fold reduction of colistin MIC: 1024 fold
K. pneumoniae B9; [10]
  fold reduction of colistin MIC: > 2000 fold
K. pneumoniae C3; adjuvant at 7.5 μM
  colistin MIC with adjuvant: 2 µg/mL
K. pneumoniae C3; adjuvant at 8 μM
  colistin MIC with adjuvant: 2 µg/mL
K. pneumoniae C3; adjuvant at 10 μM
  colistin MIC with adjuvant: 1 µg/mL
K. pneumoniae C3; adjuvant at 15 μM
  colistin MIC with adjuvant: 0.5 µg/mL
K. pneumoniae C3; adjuvant at 20 μM
  colistin MIC with adjuvant: 0.5 µg/mL
A. baumannii 3941; adjuvant at 7.5 μM
  colistin MIC with adjuvant: 16 µg/mL
A. baumannii 3941; adjuvant at 10 μM
  colistin MIC with adjuvant: 4 µg/mL
A. baumannii 3941; adjuvant at 15 μM
  colistin MIC with adjuvant: 4 µg/mL
A. baumannii 3941; adjuvant at 20 μM
  colistin MIC with adjuvant: 2 µg/mL
A. baumannii 4106 [1]; adjuvant at 7.5 μM
  colistin MIC with adjuvant: 1 µg/mL
A. baumannii 4106 [1]; adjuvant at 8 μM
  colistin MIC with adjuvant: 4 µg/mL
A. baumannii 4106 [1]; adjuvant at 10 μM
  colistin MIC with adjuvant: 1 µg/mL
  fold reduction of colistin MIC: > 2000 fold
A. baumannii 4106 [1]; adjuvant at 15 μM
  colistin MIC with adjuvant: 0.5 µg/mL
A. baumannii 4106 [1]; adjuvant at 20 μM
  colistin MIC with adjuvant: 0.5 µg/mL
[2]; adjuvant at 7.5 μM
  resensitization to breakpoint colistin levels, chromosomally resistant strains: resensitized three out of four chromosomally resistant strains; also recorded: resensitized three out of the four strains to breakpoint colistin levels
[2]; adjuvant at 20 μM
  colistin MIC with adjuvant, all four chromosomally colistin resistant strains (CLSI breakpoint): < 2 µg/mL
[3]
  colistin sensitization activity in absence and presence of Tween 80: equipotent colistin sensitization activity in the absence and presence of Tween 80
Red blood cells
  toxicity to red blood cells: generally non-toxic
4T1 cells
  toxicity to the 4T1 cell line: generally non-toxic
  CT50, Compound + colistin: 64.9 µM
  CT50, Compound alone: 94.1 µM
[4]; 50 mg/kg compound paired with 50 mg/kg colistin
  survival of inoculated worms after 4 days, combination with colistin: 47%
[4]; 50 mg/kg
  survival of inoculated worms after 4 days, monotherapy: 0%
[5]; adjuvant at 5 μM
  resensitization to colistin, all three mcr-1 containing strains: resensitized all three mcr-1 containing bacterial strains to colistin
[5]; [12]
  colistin MIC with adjuvant, all three mcr-1 strains: lowered the colistin MIC to the susceptibility breakpoint

## O=C(NCCc1c[nH]c2ccccc12)c1ccc(Cl)c(Cl)c1 [Compound 1d, N-(2-(1H-indol-3-yl)ethyl)-3,4-dichlorobenzamide]
[5]; adjuvant at 50 μM
  colistin MIC with adjuvant, all three mcr-1 strains: 2 µg/mL
  fold reduction of colistin MIC, all mcr-1 containing strains: 4-8 fold

## O=C(NCCc1c[nH]c2ccccc12)Nc1cc(Br)cc(Br)c1 [Compound 8b, 1-(2-(1H-indol-3-yl)ethyl)-3-(3,5-dibromophenyl)urea]
K. pneumoniae B9; [9]
  colistin MIC with adjuvant: 4 µg/mL
K. pneumoniae B9; adjuvant at 8 μM, K. pneumoniae B9
  colistin MIC with adjuvant: 32 µg/mL
K. pneumoniae B9; [10]
  colistin MIC with adjuvant: 1 µg/mL
K. pneumoniae B9; [11]
  colistin MIC with adjuvant: 0.5 µg/mL
K. pneumoniae C3; adjuvant at 10 μM
  colistin MIC with adjuvant: 8 µg/mL
K. pneumoniae C3; adjuvant at 15 μM
  colistin MIC with adjuvant: 4 µg/mL
K. pneumoniae C3; adjuvant at 20 μM
  colistin MIC with adjuvant: 2 µg/mL
A. baumannii 3941; adjuvant at 10 μM
  colistin MIC with adjuvant: 16 µg/mL
A. baumannii 3941; adjuvant at 15 μM
  colistin MIC with adjuvant: 8 µg/mL
A. baumannii 3941; adjuvant at 20 μM
  colistin MIC with adjuvant: 8 µg/mL
A. baumannii 4106 [1]; adjuvant at 10 μM
  colistin MIC with adjuvant: 8 µg/mL
A. baumannii 4106 [1]; adjuvant at 15 μM
  colistin MIC with adjuvant: 4 µg/mL
A. baumannii 4106 [1]; adjuvant at 20 μM
  colistin MIC with adjuvant: 4 µg/mL
4T1 cells
  CT50, Compound + colistin: 64.2 µM
  CT50, Compound alone: 86.2 µM
[5]; [12]
  colistin MIC with adjuvant, all three mcr-1 strains: lowered the colistin MIC to the susceptibility breakpoint

## CC(C)n1cc(-c2cccc(NC(=O)Nc3cc(Br)cc(Br)c3)c2)nc1N [Compound 3]
[6]
  ability to potentiate colistin activity: demonstrated the ability to potentiate colistin activity

## CN(C)c1cc(NC(=O)CNC(C)(C)C)c(O)c2c1C[C@H]1C[C@H]3[C@H](N(C)C)C(O)=C(C(N)=O)C(=O)[C@@]3(O)C(O)=C1C2=O [tigecycline, reference compound]
[4]; 100 mg/kg
  survival of inoculated worms after 4 days, monotherapy: 20%
A. baumannii 4106 [7]
  MIC: 8 µg/mL

## CCNc1nccc(-c2c[nH]c3ccc(Br)cc23)n1 [Compound 4]
[6]
  ability to potentiate colistin activity: demonstrated the ability to potentiate colistin activity

## O=C(NCCc1c[nH]c2ccccc12)Nc1cc(Cl)c(Br)c(Cl)c1 [Compound 8e, 1-(2-(1H-indol-3-yl)ethyl)-3-(4-bromo-3,5-dichlorophenyl)urea]
[5]; [12]
  colistin MIC with adjuvant, all three mcr-1 strains: lowered the colistin MIC to the susceptibility breakpoint

## O=C(NCCc1c[nH]c2ccccc12)c1cc(Cl)c(Cl)[nH]1 [Compound 2]
[6]
  ability to potentiate colistin activity: demonstrated the ability to potentiate colistin activity

## O=C(NCCc1c[nH]c2ccccc12)Nc1cc(C(F)(F)F)cc(C(F)(F)F)c1 [Compound 8c, 1-(2-(1H-indol-3-yl)ethyl)-3-(3,5-bis(trifluoromethyl)phenyl)urea]
4T1 cells
  CT50, Compound + colistin: 61.8 µM
  CT50, Compound alone: 60.5 µM
[5]; [12]
  colistin MIC with adjuvant, all three mcr-1 strains: lowered the colistin MIC to the susceptibility breakpoint

## O=C(NCCc1c[nH]c2ccccc12)Nc1ccc(Cl)c(Cl)c1 [Compound 8d, 1-(2-(1H-indol-3-yl)ethyl)-3-(3,4-dichlorophenyl)urea]
4T1 cells
  CT50, Compound + colistin: 104.8 µM
  CT50, Compound alone: 117.3 µM

## CC(C)n1cc(-c2cccc(NC(=O)Nc3cc(Cl)c(Br)c(Cl)c3)c2)nc1N [Compound 14, reference compound]
4T1 cells
  CT50, Compound + colistin: 15.6 µM
  CT50, Compound alone: 23.2 µM
